The numbers were not newly measured in publication PMC6641930 (ACS Omega, 2017), which cites them from elsewhere.

Like-named read-outs stand apart in the source and are kept apart here. Where only a bound is given, the exact number is not on record here.

The target in this series is TTR fibrils (Homo sapiens, UniProt P02766). The settings on record: two separate binding events, cited from earlier work.

In the case of `Oc1ccc(/C=C/c2cccc3ccccc23)cc1O` [Compound 1, (E)-4-(2-(naphthalen-1-yl)vinyl)benzene-1,2-diol], the Kd (read-out: Kd1, TTR fibrils (high-affinity binding site)) was 110 nM and the Kd (read-out: Kd2, TTR fibrils) was greater than 10000 nM.
